Reference: patent publication US9192678B2, “Modified hyaluronic acid polymer compositions and related methods” (priority 2009, dated 2015)

Tested on: medial femoral condyle cartilage of goat stifle joint
Assay: Modified Mankin score of femoral cartilage after intra-articular injection in goats (Example 34)
Type: in vivo
Procedure: A lightly crosslinked hydrogel prepared by reaction of vinyl-sulfone-modified hyaluronic acid with PEG-dithiol (HA-VS-PEG-(SH)2), containing the corticosteroid, triamcinolone acetonide, was injected into the intraarticular space of the stifle joint of female goats. Morphological, synovial fluid and histological examinations were conducted to evaluate local and systemic effects of such injections. Details of the study are provided below.
All test materials were stored at room temperature prior to use. For each Test or Control Material, a 1.5 ml dosage was prepared for each individual intra-articular injection.
A standard technique was used to inject each stifle joint, A 2-inch by 21 gauge sized sterile needle was introduced into the intra-articular space via an anteromedial approach. The lateral intercondylar notch wall of the medial femoral condyle was felt and the needle backed slightly off. 1.5 ml of the appropriate Test Material was injected into the right joint. The injection needle was removed and pressure was maintained on the injection site. The injected stifle joint was then cycled 20-times through a full range of motion. Immediately following this, the left stifle joint was cleansed with chlorohexidine scrub alternating with 70% isopropyl alcohol three times and painted with iodine solution and 1.5 ml of the Control Material was injected into the left stifle joint in a similar manner as described above for the right stifle. The injection needle was removed and pressure maintained on the injection site. The injected stifle joint was then cycled 20-times through a full range of motion.
Necropsy: Animals were humanely sacrificed at either 14 days or 28 days day post initial injection with an intravenous injection consisting of Diazepam 0.22 mg/kg and Ketamine 10 mg/kg for induction of general anesthesia. Following this, the anesthetized animals were given an IV overdose of concentrated potassium chloride (KCl) until the cardiac arrest had been verified.
Immediately after dissection and following gross joint surface evaluation a sagital section of each joint was cut through the medial femoral condyle (MFC). These sections were placed individually in 10% neutral buffered formalin. The fixed tissue was shipped by overnight carrier to Premier Laboratories for processing. The right and left MFC sections were processed using standard histological techniques and stained with hematoxylin and eosin (H&E) and Safranin-O (SAF-O) with a fast green counter stain. The slides from the MFC sections were evaluated by the Mankin Scoring System for osteoarthritis as described in Table 12.

[1] = 28 day group, animal died prematurely (3837: 24 days, 3588: 19 days on study), not included in averages

SMILES | Cells (modified Mankin) [1] | Safranin-O Stain (modified Mankin) [1] | Structure (modified Mankin) [1] | Tide Mark Integrity (modified Mankin) [1] | Total Mankin Score [1] | Cells (modified Mankin), MEAN (female, goat, in vivo, 14 days) | Safranin-O Stain (modified Mankin), MEAN (female, goat, in vivo, 14 days) | Structure (modified Mankin), MEAN (female, goat, in vivo, 14 days) | Tide Mark Integrity (modified Mankin) (female, goat, in vivo, 14 days) | Tide Mark Integrity (modified Mankin), MEAN (female, goat, in vivo, 14 days) | Total Mankin Score, MEAN (female, goat, in vivo, 14 days) | Cells (modified Mankin), MEAN (female, goat, in vivo, 28 days) | Safranin-O Stain (modified Mankin) (female, goat, in vivo, 28 days) | Safranin-O Stain (modified Mankin), MEAN (female, goat, in vivo, 28 days) | Structure (modified Mankin), MEAN (female, goat, in vivo, 28 days) | Tide Mark Integrity (modified Mankin) (female, goat, in vivo, 28 days) | Tide Mark Integrity (modified Mankin), MEAN (female, goat, in vivo, 28 days) | Total Mankin Score, MEAN (female, goat, in vivo, 28 days)
CC1(C)O[C@@H]2C[C@H]3[C@@H]4CCC5=CC(=O)C=C[C@]5(C)[C@@]4(F)[C@@H](O)C[C@]3(C)[C@]2(C(=O)CO)O1 [Triamcinolone Acetonide 8 mg/ml, triamcinolone acetonide] | 3.0 | 3.0 | 4.0 | 0.0 | 10.0 | 0.3 | 3.3 | 1.7 | 0.0 | 0.0 | 5.3 | 2.0 | 4.0 | 4.0 | 3.0 | 0.0 | 0.0 | 9.0
CC1(C)O[C@@H]2C[C@H]3[C@@H]4CCC5=CC(=O)C=C[C@]5(C)[C@@]4(F)[C@@H](O)C[C@]3(C)[C@]2(C(=O)CO)O1 [Triamcinolone Acetonide 2 mg/ml, triamcinolone acetonide] |  |  |  |  |  | 0.7 | 3.0 | 2.7 | 0.0 | 0.0 | 6.3 | 2.3 |  | 3.3 | 2.7 | 0.0 | 0.0 | 8.3
